Target: T1, human full-length MKNK1 (Homo sapiens, UniProt Q9BUB5, T385D)
T1 construct: GST (N); purchased Carna Biosciences 02-145; host or cells: insect cells (baculovirus expression system)
Test: MKNK1 kinase high ATP assay (TR-FRET)
Format: biochemical
Conditions: high ATP (2 mM final), 15 min preincubation with enzyme
Description: MKNK1-inhibitory activity at high ATP of compounds of the present invention after their preincubation with MKNK1 was quantified employing the TR-FRET-based MKNK1 high ATP assay as described in the following paragraphs.
A recombinant fusion protein of Glutathione-S-Transferase (GST, N-terminally) and human full-length MKNK1 (amino acids 1-424 and T344D of accession number BAA 19885.1), expressed in insect cells using baculovirus expression system and purified via glutathione sepharose affinity chromatography, was purchased from Carna Biosciences (product no 02-145) and used as enzyme. As substrate for the kinase reaction the biotinylated peptide biotin-Ahx-IKKRKLTRRKSLKG (C-terminus in amide form) was used, which can be purchased e.g. from the company Biosyntan (Berlin-Buch, Germany).
For the assay 50 nL of a 100 fold concentrated solution of the test compound in DMSO was pipetted into a black low volume 384 well microtiter plate (Greiner Bio-One, Frickenhausen, Germany), 2 μL of a solution of MKNK1 in aqueous assay buffer [50 mM HEPES pH 7.5, 5 mM MgCl2, 1.0 mM dithiothreitol, 0.005% (v/v) Nonidet-P40 (Sigma)] was added and the mixture was incubated for 15 min at 22° C. to allow pre-binding of the test compounds to the enzyme before the start of the kinase reaction. Then the kinase reaction was started by the addition of 3 μL of a solution of adenosine-tri-phosphate (ATP, 3.3 mM=>final conc. in the 5 μL assay volume is 2 mM) and substrate (0.1 μM=>final conc. in the 5 μL assay volume is 0.06 μM) in assay buffer and the resulting mixture was incubated for a reaction time of 30 min at 22° C. The concentration of MKNK1 was adjusted depending of the activity of the enzyme lot and was chosen appropriate to have the assay in the linear range, typical concentrations were in the range of 0.003 μg/mL. The reaction was stopped by the addition of 5 μL of a solution of TR-FRET detection reagents (5 nM streptavidine-XL665 [Cisbio Bioassays, Codolet, France] and 1 nM anti-ribosomal protein S6 (pSer236)-antibody from Invitrogen [#44921G] and 1 nM LANCE EU-W1024 labeled ProteinG [Perkin-Elmer, product no. AD0071]) in an aqueous EDTA-solution (100 mM EDTA, 0.1% (w/v) bovine serum albumin in 50 mM HEPES pH 7.5).
The resulting mixture was incubated for 1 h at 22° C. to allow the formation of complex between the phosphorylated biotinylated peptide and the detection reagents. Subsequently the amount of phosphorylated substrate was evaluated by measurement of the resonance energy transfer from the Eu-chelate to the streptavidine-XL. Therefore, the fluorescence emissions at 620 nm and 665 nm after excitation at 350 nm were measured in a TR-FRET reader, e.g. a Rubystar (BMG Labtechnologies, Offenburg, Germany) or a Viewlux (Perkin-Elmer). The ratio of the emissions at 665 nm and at […] was taken as the measure for the amount of phosphorylated substrate. The data were normalised (enzyme reaction without inhibitor=0% inhibition, all other assay components but no enzyme=100% inhibition).

T1 sequence (Q9BUB5 1-424 isoform Q9BUB5-2 T344D): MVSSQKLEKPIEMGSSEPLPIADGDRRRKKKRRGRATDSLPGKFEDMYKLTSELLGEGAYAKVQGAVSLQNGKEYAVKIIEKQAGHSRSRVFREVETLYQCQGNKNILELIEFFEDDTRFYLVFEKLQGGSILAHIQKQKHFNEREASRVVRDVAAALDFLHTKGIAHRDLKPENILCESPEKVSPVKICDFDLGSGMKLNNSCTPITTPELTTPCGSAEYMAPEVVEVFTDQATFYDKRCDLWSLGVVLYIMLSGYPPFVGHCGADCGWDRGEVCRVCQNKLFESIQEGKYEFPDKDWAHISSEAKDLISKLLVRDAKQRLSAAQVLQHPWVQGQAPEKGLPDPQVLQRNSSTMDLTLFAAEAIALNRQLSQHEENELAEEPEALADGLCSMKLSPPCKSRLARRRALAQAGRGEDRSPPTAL

First: c1ccc(-c2c[nH]c3ncnc(Nc4ccc5[nH]ncc5c4)c23)cc1 [Example 15, N-(1H-Indazol-5-yl)-5-phenyl-7H-pyrrolo[2,3-d]pyrimidin-4-amine]
Second: c1cncc(-c2c[nH]c3ncnc(Nc4ccc5[nH]ncc5c4)c23)c1 [Example 13, N-(1H-Indazol-5-yl)-5-(pyridin-3-yl)-7H-pyrrolo[2,3-d]pyrimidin-4-amine]
The IC50 of the first is 1.8-fold higher: 16 nM for the first, 9 nM for the second. The second is the more potent here.

Going from `CC(C)c1cc2c(Nc3ccc4[nH]ncc4c3)ncnc2[nH]1` [Example 19, N-(1H-Indazol-5-yl)-6-(propan-2-yl)-7H-pyrrolo[2,3-d]pyrimidin-4-amine] to `C=Cc1cc2c(Nc3ccc4[nH]ncc4c3)ncnc2[nH]1` [Example 9, 6-Ethenyl-N-(1H-indazol-5-yl)-7H-pyrrolo[2,3-d]pyrimidin-4-amine], the IC50 falls from 39 nM to 7 nM (5.6-fold).

First: CN(C)CCCNC(=O)c1cc2c(Nc3ccc4[nH]ncc4c3)ncnc2[nH]1 [Example 27, N-[3-(Dimethylamino)propyl]-4-(1H-indazol-5-ylamino)-7H-pyrrolo[2,3-d]pyrimidine-6-carboxamide]
Second: O=C(NCCO)c1cc2c(Nc3ccc4[nH]ncc4c3)ncnc2[nH]1 [Example 20, N-(2-Hydroxyethyl)-4-(1H-indazol-5-ylamino)-7H-pyrrolo[2,3-d]pyrimidine-6-carboxamide]
The IC50 of the first is 1.8-fold lower: 5 nM for the first, 9 nM for the second. The first is the more potent here.

`FC(F)(F)c1c[nH]c2ncnc(Nc3ccc4[nH]ncc4c3)c12` [Example 35, N-(1H-Indazol-5-yl)-5-(trifluoromethyl)-7H-pyrrolo[2,3-d]pyrimidin-4-amine] and `CCc1c[nH]c2ncnc(Nc3ccc4[nH]ncc4c3)c12` [Example 40, 5-Ethyl-N-(1H-indazol-5-yl)-7H-pyrrolo[2,3-d]pyrimidin-4-amine] are within 1.5-fold of each other in IC50: 37 nM for the first, 29 nM for the second.

`Cc1c(C(=O)O)[nH]c2ncnc(Nc3ccc4[nH]ncc4c3)c12` [Example 32, 4-(1H-Indazol-5-ylamino)-5-methyl-7H-pyrrolo[2,3-d]pyrimidine-6-carboxylic acid] and `CCOC(=O)c1[nH]c2ncnc(Nc3ccc4[nH]ncc4c3)c2c1C` [Example 29, Ethyl 4-(1H-indazol-5-ylamino)-5-methyl-7H-pyrrolo[2,3-d]pyrimidine-6-carboxylate] are within 1.5-fold of each other in IC50: 18 nM for the first, 13 nM for the second.

`C[C@H]1COCCN1C(=O)c1[nH]c2ncnc(Nc3ccc4[nH]ncc4c3)c2c1Br` [Example 43, [5-Bromo-4-(1H-indazol-5-ylamino)-7H-pyrrolo[2,3-d]pyrimidin-6-yl][(3S)-3-methylmorpholin-4-yl]methanone] and `C[C@@H]1COCCN1C(=O)c1[nH]c2ncnc(Nc3ccc4[nH]ncc4c3)c2c1Br` [Example 42, [5-Bromo-4-(1H-indazol-5-ylamino)-7H-pyrrolo[2,3-d]pyrimidin-6-yl][(3R)-3-methylmorpholin-4-yl]methanone] are within 1.5-fold of each other in IC50: 75 nM for the first, 58 nM for the second.

`CN1CCN(C(=O)c2cc3c(Nc4ccc5[nH]ncc5c4)ncnc3[nH]2)CC1` [Example 23, [4-(1H-Indazol-5-ylamino)-7H-pyrrolo[2,3-d]pyrimidin-6-yl](4-methylpiperazin-1-yl)methanone] and `O=C(c1cc2c(Nc3ccc4[nH]ncc4c3)ncnc2[nH]1)N1CCCC1` [Example 21, [4-(1H-Indazol-5-ylamino)-7H-pyrrolo[2,3-d]pyrimidin-6-yl](pyrrolidin-1-yl)methanone] are within 1.5-fold of each other in IC50: 9 nM for the first, 8 nM for the second.

First: CC(C)Cc1[nH]c2ncnc(Nc3ccc4[nH]ncc4c3)c2c1C(C)C [Example 39, N-(1H-Indazol-5-yl)-6-(2-methylpropyl)-5-(propan-2-yl)-7H-pyrrolo[2,3-d]pyrimidin-4-amine]
Second: CCc1[nH]c2ncnc(Nc3ccc4[nH]ncc4c3)c2c1C [Example 1, 6-Ethyl-N-(1H-indazol-5-yl)-5-methyl-7H-pyrrolo[2,3-d]pyrimidin-4-amine]
The IC50 of the first is 2.8-fold lower: 21 nM for the first, 58 nM for the second.

Going from `O=S(=O)(c1ccccc1)c1cc2c(Nc3ccc4[nH]ncc4c3)ncnc2[nH]1` [Example 36, N-(1H-Indazol-5-yl)-6-(phenylsulfonyl)-7H-pyrrolo[2,3-d]pyrimidin-4-amine] to `Cc1ccc(S(=O)(=O)c2cc3c(Nc4ccc5[nH]ncc5c4)ncnc3[nH]2)cc1` [Example 37, N-(1H-Indazol-5-yl)-6-[(4-methylphenyl)sulfonyl]-7H-pyrrolo[2,3-d]pyrimidin-4-amine], the IC50 rises from 1 nM to 2 nM (2-fold). The first is the more potent here.

First: CCCc1[nH]c2ncnc(Nc3ccc4[nH]ncc4c3)c2c1CC [Example 34, 5-Ethyl-N-(1H-indazol-5-yl)-6-propyl-7H-pyrrolo[2,3-d]pyrimidin-4-amine]
Second: CCOC(=O)c1[nH]c2ncnc(Nc3ccc4[nH]ncc4c3)c2c1Br [Example 30, Ethyl 5-bromo-4-(1H-indazol-5-ylamino)-7H-pyrrolo[2,3-d]pyrimidine-6-carboxylate]
The IC50 of the first is 4.3-fold higher: 13 nM for the first, 3 nM for the second.

Going from `CS(=O)(=O)c1cc2c(Nc3ccc4[nH]ncc4c3)ncnc2[nH]1` [Example 5, N-(1H-Indazol-5-yl)-6-(methylsulfonyl)-7H-pyrrolo[2,3-d]pyrimidin-4-amine] to `OCc1c[nH]c2ncnc(Nc3ccc4[nH]ncc4c3)c12` [Example 41, [4-(1H-indazol-5-ylamino)-7H-pyrrolo[2,3-d]pyrimidin-5-yl]methanol], the IC50 rises from 11 nM to 37 nM (3.4-fold).

`c1ccc(CCc2cc3c(Nc4ccc5[nH]ncc5c4)ncnc3[nH]2)cc1` [Example 26, N-(1H-Indazol-5-yl)-6-(2-phenylethyl)-7H-pyrrolo[2,3-d]pyrimidin-4-amine] gave an IC50 of 80 nM.

Source: patent US20150218173A1, “SUBSTITUTED INDAZOL-PYRROLOPYRIMIDINES USEFUL IN THE TREATMENT OF HYPERFOLIFERATIVE DISORDERS” (BAYER PHARMA AKTIENGESELLSCHAFT, priority 2012, published 2015)
